Data: US20260193254A1, “2-OXOQUINAZOLINE CRYSTALLINE FORMS” (IDEAYA Biosciences, Inc., priority 2022, published 2026)

Assay: Variable humidity and temperature XRPD experiments
Format: physicochemical
Experimental: Based on DVS and DSC results of Form C, Form C starts to loss water when humidity is below 30% or when temperature is higher than about 44° C. […] In order to determine identity of potential form changes after the dehydration and upon the solid-solid transition, variable humidity and variable temperature XRPD techniques were applied. XRPD patterns of the sample were measured online under 25° C./ambient environment (initial)-120° C./N2 protection-25° C./ambient environment-25° C./80% RH (40 min)-25° C./0% RH (15 h), and 25° C./ambient environment (initial)-250° C./N2 protection-25° C./ambient environment. […] Form L coverts back to Form C after exposure to 25° C./80% RH for 40 min.
Based on DVS and DSC results of Form D, Form D starts to loss water when humidity is below 10% or when temperature is higher than 46° C. In order to determine identity of the dehydration product, variable humidity and variable temperature XRPD techniques were applied. XRPD patterns of the sample were measured online with a temperature cycle of 25° C./ambient environment (initial)-130° C./N2 protection (10 min)-25° C./N2 protection-25° C./ambient environment (3h) and two water sorption and desorption cycles of 50% RH (initial)-90% RH (3h)-60% RH (2h)-40% RH (2h)-20% RH (3h)-10% RH (3h)-0% RH (6h)-10% RH (3h)-20% RH (3h)-50% RH at 25° C. […] (higher than dehydration temperature). Form S converts back to Form D after exposure to ambient condition for 3 h.
In order to investigate potential form change of Form A upon heating, variable temperature XRPD technique was applied. XRPD patterns of the sample were measured online with a temperature cycle of 25° C. (initial)-50° C./N2 protection-70° C./N2 protection-250° C./N2 protection-25° C./N2 protection-25° C./ambient condition (3h). […] Form A converts to Form U when temperature is 250° C., and Form U converts to Form T after cooling to 25° C.

[1] = variable temperature XRPD, N2 protection

With `Nc1nc(=O)n(-c2ccccc2Cl)c2nc(C(F)(F)F)ccc12` [Form A, 4-Amino-1-(2-chlorophenyl)-7-(trifluoromethyl)pyrido[2,3-d]pyrimidin-2(1H)-one] the “XRPD (XRPD method 2)” value (VT16 70° C./37% RH (10 min)) was “Form A”, the “XRPD (XRPD method 2)” value (VT18 25° C./N2 protection (10 min)) was “Form T” and the “XRPD (XRPD method 2)” value (VT19 25° C./37% RH (3 h)) was “Form T”. The “form change after heating to 70° C.” value [1] was “no form change” and the “form obtained on heating to 250° C.” value [1] was “Form U”.
